Laboratory results as given in US5498602A, “Oligosaccharide aromatic glycoside and sulfate thereof” (priority 1991, dated 1996).

Legend:
HIV = experiment: Anti-AIDS (HIV) activity in HIV-infected MT-4 cells (MTT method); format: cell-based; settings: for EC50 (50% effective concentration, prevention of 50% of cytopathogenic effects of HIV): 37° C., MTT method
Procedure: (§1) Evaluation method: Test substances having various concentrations were placed in a 96-well microtiter plate along with HIV-infected MT-4 cells (2.5×10^4 /well, MOI: 0.01) immediately after the infection thereof. In order to ascertain the cytotoxicity of the test substance with respect to the MT-4 cells, non-infected cells were cultured in an identical manner along with the test substances of various concentrations. After culturing for 5 days at a temperature of 37° C. in a CO2 incubator, the number of living cells was determined using the MTT method. The antiviral activity is shown in terms of the concentration which prevented 50% of the cytopathogenic effects of the HIV virus (EC50 : 50% effective concentration) and the cytotoxicity is shown in terms of the concentration at which the cytotoxicity of the test substance reaches 50% (CC50 : 50% cytotoxic concentration).Furthermore, the selectivity index (S.I.) is calculated as CC50 /EC50.
(§2) (Reference: Pauwels, et al., J. Viral Methods, 20 (1988) 309-321). Using this method, the compounds of Examples 30-43 were tested for anti-HIV activity. The compounds shown in Table 2 (Examples 35~38) are produced by means of novel sulfation methods. For the purposes of comparison, the conventional anti-AIDS agents AZT (3'-azido-2',3'-dideoxythymidine) and dextran sulfate were also tested, and the results thereof are appended as comparative data.

MT-4 cells = experiment: Cytotoxicity with respect to non-infected MT-4 cells (MTT method); format: cell-based; settings: 5 days; for CC50 (50% cytotoxic concentration): 37° C., MTT method
Procedure: as §1, §2

[1] = HIV-infected MT-4 cells, MOI 0.01, 5 days

Molecule	SI (selectivity index, CC50/EC50) (HIV; CC50/EC50, MT-4 cells, HIV)	EC50 (HIV; Human immunodeficiency virus 1, MT4, 120 h, AZT, footnote: units are μM, HIV-infected MT-4 cells, MOI 0.01, 5 days, read-out: EC50 (50% effective concentration)) [µM]	CC50 (MT-4 cells; AZT, footnote: units are μM, read-out: CC50 (50% cytotoxic concentration)) [µM]	EC50 (50% effective concentration, prevention of 50% of cytopathogenic effects of HIV) (HIV; [1]) [µg/mL]	CC50 (50% cytotoxic concentration) (MT-4 cells) [µg/mL]
Cc1cn([C@H]2C[C@H](N=[N+]=[N-])[C@@H](CO)O2)c(=O)[nH]c1=O [AZT, 3'-azido-2',3'-dideoxythymidine, reference compound]	2700	0.004	10.8	–	–
dextran sulfate [reference compound]	–	–	–	0.50	> 1000
heptyloxyphenyl β-D-galactopyranosyl-(1→4)-{β-D-galactopyranosyl-(1→4)}2 -β-D-glucopyranoside sulfate [Example 42]	–	–	–	0.23	> 1000
octyloxyphenyl β-D-galactopyranosyl-(1→4)-{β-D-galactopyranosyl-(1→4)}2 -β-D-glucopyranoside sulfate [Example 40]	–	–	–	0.95	> 1000
octyloxyphenyl β-D-galactopyranosyl-(1→4)-β-D-galactopyranosyl-(1→4)-β-D-glucopyranoside sulfate [Example 41]	–	–	–	1.12	> 1000
octylphenyl β-D-galactopyranosyl-(1→4)-{β-D-galactopyranosyl-(1→4)}2 -β-D-glucopyranoside sulfate [Example 39]	–	–	–	0.82	> 1000
p-(1,1,3,3-tetramethylbutyl)phenyl β-D-galactopyranosyl-(1→4)-{β-D-galactopyranosyl-(1→4)}2 -β-D-glucopyranoside sulfate [Example 43]	–	–	–	0.04	> 1000
p-(1,1,3,3-tetramethylbutyl)phenyl β-D-glucopyranosyl-(1→3)-{β-D-glucopyranosyl-(1→3)}3 -β-D-glucopyranoside sulfate [Example 35]	–	–	–	0.038	> 1000
p-(1,1,3,3-tetramethylbutyl)phenyl β-D-glucopyranosyl-(1→3)-{β-D-glucopyranosyl-(1→3)}m -β-D-glucopyranoside sulfate [Example 38]	–	–	–	0.020	> 1000
p-heptyloxyphenyl β-D-glucopyranosyl-(1→3)-{β-D-glucopyranosyl (1→3)}3 -β-D-glucopyranoside sulfate [Example 36]	–	–	–	0.062	> 1000
p-heptyloxyphenyl β-D-glucopyranosyl-(1→3)-{β-D-glucopyranosyl-(1→3)}3 -β-D-glucopyranoside sulfate [Example 33]	–	–	–	0.77	> 1000
p-octylphenyl β-D-glucopyranosyl-(1→3)-{β-D-glucopyranosyl (1→3)}3 -β-D-glucopyranoside sulfate [Example 30]	–	–	–	0.62	> 1000
p-octylphenyl β-D-glucopyranosyl-(1→3)-{β-D-glucopyranosyl (1→3)}3 -β-D-glucopyranoside sulfate [Example 37]	–	–	–	0.080	> 1000
p-octylphenyl β-D-glucopyranosyl-(1→3)-{β-D-glucopyranosyl (1→3)}5 -β-D-glucopyranoside sulfate [Example 34]	–	–	–	0.31	> 1000
p-pentylphenyl β-D-glucopyranosyl-(1→3)-{β-D-glucopyranosyl (1→3)}3 -β-D-glucopyranoside sulfate [Example 31]	–	–	–	0.75	> 1000
sulfated p-heptyloxyphenyl β-D-glucopyranosyl-(1→3)-{β-D-glucopyranosyl-(1→3)}3 -β-D-glucopyranoside [Example 32]	–	–	–	0.72	> 1000
